This is an account of results in patent US11400104B2, “Skeletal removal of bisphosphonates” (The Regents of the University of California, priority 2016, dated 2022).

One series concerns mouse cranial bone. Kind of series: cranial bone displacement: AF647-ZOL pre-adsorbed via IV, FAM-ZOL sub-periosteal injection. Particulars: for signal of pre-adsorbed AF647-ZOL at the FAM-ZOL injection site: AF647-ZOL 100 μl of 50 μM IV 6 days before, increasing dose of FAM-ZOL; for FAM signal on the cranial bone at the injection site: sub-periosteal 10 μl of 0, 1, 10 or 50 μM. The format is in vivo. The protocol: FIG. 12A to FIG. 12C show the displacement and replacement of AF647-ZOL and 5-FAM-ZOL. FIG. 12A are fluorescent images of cranial bone. AF647-ZOL (50 μM) was pre-adsorbed on cranial bone via IV injection. 5-FAM-ZOL at the indicated doses was directly injected to the sub-periosteal space. […] The first bars of each set are for AF647-ZOL and the second bars of each set are for 5-FAM-ZOL. *, P<0.05 vs Veh by Dunnett's test.
Mice were pre-treated by 100 μl of 50 μM AF647-ZOL retro-orbital IV injection. Six days later, mice received sub-periosteal injection to cranial bone with 10 μl of 0 μM, 1 μM, 10 μM, or 50 μM FAM-ZOL. The cranial bone was harvested and soft tissues were removed. The fluorescent signals of AF647 and FAM were measured by standardized fluorescent biophotonics. The cranial bones were then prepared for cryosection. Cross-sections were made by the tape method and evaluated by confocal laser scanning microscopy.

For the next series, the system named is mouse maxilla. Kind of series: preliminary study: fluorescent imaging of mouse maxilla after 5-FAM-ZOL IV or ROX-RIS intraoral injection. The series is classed as in vivo. Particulars: single IV 200 μl of 350 μM; 3 weeks after. The protocol: In a preliminary study female C57B16/J (B6) mice (8 weeks old) received either a single IV injection via tail vein of 200 μl of 350 μM 5-FAM-ZOL (5-FAM-ZOL, #BV111001, BioVinc LLC, Culver City, Calif.) or a single intraoral injection of 25 μl of 50 μM ROX-RIS (5(6)-ROX-RIS, #BV150101, BioVinc LLC, CA) to gingival/palatal tissue at maxillary left first molar (white arrow in FIG. 11). […], mice were euthanized 3 weeks after the IV injection of 5-FAM-ZOL or 2 days after the intraoral injection of ROX-RIS. Skulls (containing maxilla) were harvested and standardized fluorescent biophotonics image was obtained using an excitation wavelength of 460 nm and the 515 nm filter (LAS3000, FUJIFILM Corp).

A further series has as its system femur trabecular bone. Kind of series: micro CT evaluation of pharmacological function of 5-FAM-ZOL in vitamin D deficient rats. Particulars: vitamin D deficient (VitD (−)) rats; FIG. 13. The series is classed as in vivo. The protocol:
The pharmacological function of 5-FAM-ZOL was examined in vitamin D deficient (VitD (−)) rats (n=3 in each group). […] Bars are 1.0 mm. *: p<0.05 by Student's t-test.
This study determines the anti-resorptive function of FL-BP in vivo, as compared to ZOL. Female B6 mice were injected with 50 μM ZOL (n=6), 50 μM FL-BP (n=6) or 0.9% NaCl vehicle solution (control: n=6) via tail vein. Three weeks later, mice were euthanized and femur and L4/L5 were harvested. After fixed in 10% buffered formalin, bone samples were subjected to micro CT analysis. The anti-resorptive function were quantitatively established by the trabecular bone three-dimensional morphometry (e.g., BV/TV, Tb.N, Tb.Th, TbSp). FL-BPs with minimal or no pharmacological BP function are used.

Series [1] in a line: hydroxyapatite (HAP) binding affinity, relative retention times normalized to RIS. To be noted: FIG. 7. Here is the method: FIG. 7 is a bar graph showing hydroxyapatite (HAP) binding affinity of Zoledronate (ZOL), ROX-RIS, 5-FAM-ZOL, and AF647-ZOL. Relative retention times were normalized to RIS.
Hydroxyapatite assays indicate that the FL-BPs generally retain substantial affinity for bone mineral that reflect the affinity of the BP component and to a lesser extent, the affinity of the conjugated fluorophore. Hydroxyapatite (Macro-Prep® Ceramic hydroxyapatite Type II […]) was obtained from Bio-Rad Laboratories, Inc. Hercules, Calif. Accurately weighed hydroxyapatite powder (1.4-1.6 mg) was suspended in a 4 mL clear vial containing the appropriate volume of assay buffer (0.05% (wt/vol) Tween20, 10 μM EDTA and 100 mM HEPES pH=7.4) for 3 hours. Hydroxyapatite was then incubated with increasing amounts of FAM-BP and ROX-BP (0, 25, 50, 100, 200, and 300 μM). Samples were gently shaken for 3 hours at 37° C. in appropriate volume of assay buffer (0.05% (wt/vol) Tween20, 10 μM EDTA and 100 mM HEPES pH=7.4). Subsequent to the equilibrium period, the vials were centrifuged at 10,000 rpm for 5 minutes to separate the solids and the supernatant. 0.3 mL of the supernatant was collected and the equilibrium solution concentration is measured by using Shimadzu UV-VIS spectrometer. For the calibration series, FL-BP probe standards were prepared by serial dilution from the stock solution with the same isotherm buffer to give the range from 0 to 400 μM. Calibration curves were constructed using standard solutions of the target FL-BPs. Fluorescent emission can also be used to calculate the binding parameters. Nonspecific binding was measured with a similar procedure in the absence of hydroxyapatite as control. Binding parameters (Kd and Bmax, represent the equilibrium dissociate constant and maximum number of binding sites, respectively) were calculated using the PRISM program (Graphpad, USA). The binding parameters of each compound was measured in 5 independent experiments. […]

Entries after “also recorded” stand apart in the source; their conditions may differ.

In the case of `O=C(NCC(O)C[n+]1ccn(CC(O)(P(=O)(O)O)P(=O)(O)O)c1)c1ccc(-c2c3ccc(=O)cc-3oc3cc(O)ccc23)c(C(=O)O)c1` (stereo not drawn) [5-FAM-ZOL], in the series with mouse cranial bone, the “signal of pre-adsorbed AF647-ZOL at the FAM-ZOL injection site” value is given as “decreased” and the “FAM signal on the cranial bone at the injection site” value is listed as “increased with increasing injection dose”. Further, in the series on mouse cranial bone (listed as FAM-ZOL), the “signal of pre-adsorbed AF647-ZOL at the FAM-ZOL injection site” value is “gradual decrease” and the “FAM signal on the cranial bone at the injection site” value is recorded as “dose dependent increase”. For the same molecule, in the series on mouse cranial bone (cranial bone cryo-cross sections), the “AF647-ZOL signal on the external versus internal bone surface after FAM-ZOL injection” value is reported as “disproportionately reduced”. The “location of FAM-ZOL signal in cranial bone” value in the series on mouse cranial bone (sub-periosteal injection, cryo-cross sections) is recorded as “primarily on the external bone surface”. For the same molecule, the “fluorescent signal in maxilla and zygomatic arch” value with mouse maxilla was “Strong and relatively uniform green fluorescent signal”. Also, in the series on femur trabecular bone, the “pharmacological (anti-resorptive) function” value is given as “exhibited pharmacological function; also recorded: effectively blocked catabolic bone remodeling”. Further, the “influence of the fluorophore on hydroxyapatite affinity” value in series [1] is on record as “small reduction”.
